Key:
[1] = Metabolic stability in human liver microsomes (HLM); assay type: in vitro ADME; conditions: both sexes, pooled human liver microsomes, pH 7.4, NADPH
Method: HLM Stability. Pooled HLM from adult male and female donors (Corning 452117) were used. Microsomal incubations were carried out in multi-well plates. […] Control incubations were performed by replacing the NADPH-cofactor system with PBS. Test compounds (1 μM, final solvent concentration 1.0%) were incubated with microsomes at 37° C. with constant shaking. Six time points over 60 minutes were analyzed, with 60 μL aliquots of the reaction mixture being drawn at each time point.

[2] = Metabolic stability in mouse liver microsomes (MLM); assay type: in vitro ADME, CD-1 mice; conditions: CD-1, mouse, pooled mouse liver microsomes, pH 7.4, NADPH
Method: MLM Stability. Pooled MLM from CD-1 mice (BIOIVT M00501) were used. Microsomal incubations were carried out in multi-well plates. […] Control incubations were performed by replacing the NADPH-cofactor system with PBS. Test compounds (1 μM, final solvent concentration 1.0%) were incubated with microsomes at 37° C. with constant shaking. Six time points over 60 minutes were analyzed, with 60 μL aliquots of the reaction mixture being drawn at each time point.

[3] = Metabolic stability in rat liver microsomes (RLM); assay type: in vitro ADME; conditions: both sexes, pooled rat liver microsomes, pH 7.4, NADPH
Method: RLM Stability. Pooled RLM from adult male and female donors (Xenotech R1000) were used. Microsomal incubations were carried out in multi-well plates. […] Control incubations were performed by replacing the NADPH-cofactor system with PBS. Test compounds (1 μM, final solvent concentration 1.0%) were incubated with microsomes at 37° C. with constant shaking. Six time points over 60 minutes were analyzed, with 60 μL aliquots of the reaction mixture being drawn at each time point.

[4] = tested on: monoamine oxidase A and B (MAO-A and MAO-B); experiment: Stability in the presence of monoamine oxidases (human liver mitochondria); assay type: in vitro ADME
Method: Liver Mitochondria Incubations. Human liver mitochondria (Xenotech H0610.M) were used. Mitochondrial incubations were carried out in multi-well plates. […] Six time points over 60 minutes were analyzed.

[5] = molecular target: 5-HT2A (Homo sapiens (Human), UniProt P28223); experiment: FLIPR Ca2+ flux agonist assay, 5-HT2A; assay type: cell-based; conditions: HEK293
Method: (§1) A solution of 250 mM probenecid in 1 mL FLIPR assay buffer was prepared fresh. This was combined with a fluorescent dye (Fluo-4 Direct™) to make a final assay concentration of 2.5 mM. […] The fluorescent dye was then added to the assay plate along with assay buffer to a final volume of 40 μL. The cell plate was incubated for 50 min at 37° C. and 5% CO2 and placed into the FLIPR Tetra along with the compound plate. 10 μL of references and compounds were then transferred from the compound plate into the cell plate and the fluorescent signal was read.

[6] = molecular target: 5-HT2B (Homo sapiens (Human), UniProt P41595); experiment: FLIPR Ca2+ flux agonist assay, 5-HT2B; assay type: cell-based; conditions: Ca2+ flux, HEK293
Method: as §1

[7] = molecular target: 5-HT1A (Homo sapiens (Human), UniProt P08908); experiment: FLIPR Ca2+ flux agonist assay, 5-HT1A; assay type: cell-based; conditions: Ca2+ flux, CHO cells
Method: as §1

[8] = Stability in mouse brain homogenate; assay type: in vitro ADME, CD-1 mice
Method: Mouse Brain Homogenate Stability. Frozen mouse brain homogenate (pooled from male CD-1 mice, BioreclamationIVT, MSE00BRAINMZA) was thawed in a water bath at 37° C. immediately prior to use. Positive controls and test compounds (final concentration in incubation medium=1 μM for test compounds and 2 μM for controls, all with 2% DMSO) were incubated in duplicate for each time point (0, 10, 30, 60, and 120 min) in the mouse brain homogenate at a total reaction volume of […] at 37° C. At the end of each incubation period, reactions were immediately quenched with 400 μL of acetonitrile containing internal standard (200 ng/mL tolbutamine and 200 ng/ml labetalol) and mixed thoroughly. Plates were then sealed, shaken for 20 min, and centrifuged at 4,000 rpm and 4° C. for 20 min. Aliquots of 50 μL of each supernatant were diluted into 100 μL of water and the mixtures were then shaken again for 10 min.

[9] = Stability in rat brain homogenate; assay type: in vitro ADME, Sprague Dawley rats
Method: Rat Brain Homogenate Stability. Frozen rat brain homogenate (pooled from male Sprague Dawley rats, BioreclamationIVT, RATOOBRAINMZA) was thawed in a water bath at 37° C. immediately prior to use. Positive controls and test compounds (final concentration in incubation medium=1 μM for test compounds and 2 μM for controls, all with 2% DMSO) were incubated in duplicate for each time point (0, 10, 30, 60, and 120 min) in the rat brain homogenate at a total reaction volume of 100 μL at 37° C. At the end of each incubation period, reactions were immediately quenched with 400 μL of acetonitrile containing internal standard (200 ng/ml tolbutamine and 200 ng/ml labetalol) and mixed thoroughly. Plates were then sealed, shaken for 20 min, and centrifuged at 4,000 rpm and 4° C. for 20 min. Aliquots of 50 μL of each supernatant were diluted into 100 uL of water and the mixtures were then shaken again for 10 min.

[10] = molecular target: serotonin transporter (SERT) (Homo sapiens (Human), UniProt P31645); experiment: SERT fluorescent substrate uptake inhibition in transfected HEK293 cells; assay type: cell-based; conditions: HEK293 cells expressing SERT
Method: SERT Uptake Inhibition. The ability of test compounds to block monoamine uptake by SERT was determined using the Neurotransmitter Transporter Uptake Assay Kit manufactured by Molecular Devices (Cat #R8173). Briefly, stably transfected HEK293 cells expressing SERT were grown and plated into 384-well plates at a concentration of 20,000 cells per well. Plates were then incubated for 16-20 h at 37° C. and 5% CO2. The medium was then aspirated and replaced with 25 μL of assay buffer (20 mM HEPES in HBSS, containing 0.1% BSA) containing the test compounds at the appropriate concentrations. Plates were then centrifuged at 300 rpm for 15 s and then incubated at 37° C. for 30 minutes. At this time, 25 μL of the proprietary fluorescent dye solution was added, the plates were incubated at 37°° C. for 60 minutes, and then fluorescence was quantified on a plate reader (excitation wavelength =440 nm, emission wavelength=520 nm). The proprietary dye solution contains a mixture of 1) a fluorescent dye (dye 1) that mimics the endogenous substrate of SERT and is thereby actively transported to the intracellular compartment in the absence of an inhibitor and 2) a masking dye that inhibits the fluorescence of dye 1 in the extracellular compartment. Therefore, the overall fluorescence of the system increases as the fluorescent dye is transported into the cells.

[11] = tested on: C57BL/6 mice; experiment: Head twitch response (HTR) in mice; assay type: in vivo
Method: Animals. Adult male C57BL/6 mice, aged 8 weeks (body weight 20-25 g) were used in these experiments. Animals were housed under controlled temperatures and 12-hour light/dark cycles (lights on between 07:00-19:00 h), with ad libitum food and water. The protocol was approved by the Eurofins Advinus Institutional Animal Care and Use Committee. This study was carried out in strict accordance with the recommendations in the Guide for the Care and Use of Laboratory Animals of the National Institutes of Health. All efforts were made to minimize suffering.
Drugs and Drug administration. Compounds 3 and 4 were prepared as described above. All other compounds were commercially obtained. Test compounds were used as the hydrogen fumarate (1 and 2) or hydrochloride (DOI, 3, and 4) salts. Drugs were dissolved in a vehicle consisting of normal saline and administered subcutaneously (SC) in a volume of 10 ml/kg. Test compounds were administered at 5 doses per compound (0.1 to 100 mg/kg, as indicated, calculated based on the free base) using N=6 animals/group. […] For blockade experiments, MDL100907 (0.1 mg/kg, SC) was administered 10 mins prior to the test compound.
Procedure. Mice were administered one dose of a test drug (or vehicle) s.c. and immediately placed into a small open field for behavioral observation. Animals were observed continuously for 20 mins and the number of HTRs were counted by an observer blind to the treatment condition.
Statistical analysis. The data points shown in Table 11 are the mean ±standard error of the mean (SEM). Analysis was performed using GraphPad Prism 9.

[12] = human liver mitochondria, pH 7.4, human mitochondrial preparation, 1 μM

5-HT2B, sequence (P41595 whole entry, looked up, species assumed): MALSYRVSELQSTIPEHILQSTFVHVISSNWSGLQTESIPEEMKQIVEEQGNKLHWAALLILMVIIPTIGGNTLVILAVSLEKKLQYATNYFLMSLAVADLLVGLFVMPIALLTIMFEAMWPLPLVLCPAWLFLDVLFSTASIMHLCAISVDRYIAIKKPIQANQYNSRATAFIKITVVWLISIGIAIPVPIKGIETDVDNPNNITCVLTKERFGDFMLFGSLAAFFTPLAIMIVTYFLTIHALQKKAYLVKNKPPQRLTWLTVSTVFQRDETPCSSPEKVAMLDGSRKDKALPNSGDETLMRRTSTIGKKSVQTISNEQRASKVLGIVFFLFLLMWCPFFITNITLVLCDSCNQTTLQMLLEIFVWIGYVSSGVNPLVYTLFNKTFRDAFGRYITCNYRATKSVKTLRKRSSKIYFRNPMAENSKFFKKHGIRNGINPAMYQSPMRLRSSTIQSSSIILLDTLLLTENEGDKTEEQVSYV

## COc1ccc2[nH]cc(CCN(C)C)c2c1 [Compound 5-MeO-DMT, 5-methoxy-N,N-dimethyltryptamine, reference compound]
[1]
  half-life at 1 μM: 13.6 min
[2]
  half-life at 1 μM: 48.8 min
  microsomal CLint at 1 μM: 28.4 µL/min/mg
[3]
  half-life at 1 μM: 14 min
  microsomal CLint at 1 μM: 98.8 µL/min/mg
[4]; human liver mitochondria preparation
  MAO stability (in words): highly metabolized
[4]; [12]
  half-life at 1 μM: 52.9 min
  microsomal CLint at 1 μM: 43.6 µL/min/mg
[4]; human mitochondrial preparation, 1 μM, 60 min
  Remaining (t = 60 min): 47.1%
[5]
  5-HT2A % Act @ Max Dose: 106%
[6]
  5-HT2B % Act @ Max Dose: 20.5%
[7]
  5-HT1A % Act @ Max Dose: 78.8%
[8]
  stability in mouse brain homogenate (in words): high stability
[8]; male, CD-1, mouse brain homogenate, 1 μM, 37° C.
  half-life at 1 μM: > 289 min
[8]; mouse brain homogenate, 1 μM, 37° C.
  % Compound Remaining (after 120 min): 91.2%
[9]
  stability in rat brain homogenate (in words): highly unstable
[9]; male, Sprague Dawley, rat brain homogenate, 1 μM, 37° C.
  half-life at 1 μM: 14.4 min
[9]; rat brain homogenate, 1 μM, 37° C.
  % Compound Remaining (after 120 min): 0.3%
[10]
  IC50: 7.02 µM
  SERT % Inhibition @ Max Dose: 68.07%

## COc1cc(CC(C)N)c(OC)cc1I (stereo not shown) [DOI, 4-iodo-2,5-dimethoxyamphetamine, reference compound]
[11]; SC, maximal over tested doses
  maximal effect in HTR: 35.6 head twitches/20 min

## COc1cccc([C@H](O)C2CCN(CCc3ccc(F)cc3)CC2)c1OC [MDL100907, reference compound]
[11]; pretreatment 0.1 mg/kg SC, 10 mins prior to Compound 4
  blockade of the HTR induced by Compound 4: completely blocked
